Entries after “also recorded” stand apart in the source; their conditions may differ.

These results are taken from patent US20210340130A1, “Compositions and methods for treating attention deficit disorders” (priority 2016, published 2021).

For one data set, the system named is BDNF production. The settings on record: 16 uM; cited from earlier work.
For data set [1], the system named is hippocampal slices (CA1 population spikes). As for the experimental part: Slice Seizure Assay In these studies extracellular field potentials recording (Population Spikes) in hippocampal slices were used to determine convulsant activity (potential seizure liability). Transverse 300-400 μm hippocampal slices were taken from adult male Sprague-Dawley rats (4-6 week old) and incubated in a submerge slice recording chamber system for 30 to 60 min. The chamber was perfused with oxygenated artificial cerebral spinal fluid (ACSF) comprising (in mM): NaCl 124, KCl 3.0, KH2PO4 1.25, CaCl2.34, MgSO4 2.5, NaHCO3 26 and glucose 10 at room temperature. Population Spike (PS) recordings were made with glass electrodes filled with 2 M NaCl (1-5 megaohm) places in the region of pyramidal cell body of CA1. Electrical stimuli were produced with twisted bipolar nichrome wire electrodes in the Schaffer-commissural fiber afferents. Population spike was induced by activating Schaffer-commissural fiber using single pulse stimulation with delivered at 0.05 Hz. The maximal amplitude of PS was determined by increase stimulating intensity till second spike appears. Then the intensity was decreased to induce a 50% to 60% of maximal response. The amplitude of PS was measured for each response and plotted against time. At same time the amplitude of second PS and/or number of PS was measured and plotted against time. The size of the second PS and numbers of PS were used to estimate the seizure potential or seizure state. With 20 to 50 min stable baseline established testing compound was perfused for 10 to 20 min at each concentration to observe the effect. […] The perfusion then was switched to control ACSF and continued to record until drug effect was washed back to the baseline. CX717 and CX1739 exemplary test ampakine compounds were prepared by dissolving in DMSO and then added to ACSF.
The upper 3 panels of FIG. 5 show amplitudes for PS 1, 2 and 3 m respectively. Lower panel is the measurement of the number of PS.

The subject of data set [2] is cyclothiazide binding site. Particulars: cited from earlier work.
Another data set relates to hippocampal slices. The settings on record: cited from earlier work.
Data set [3] deals with fragile X syndrome patients. Particulars: cited from earlier work.
For the next data set, the system named is schizophrenia patients. Particulars: cited from earlier work.

With `O=C1c2cc3c(cc2OC2CCCN12)OCCO3` (stereo not shown) [CX614, reference compound], the “BDNF production in hippocampal slices” value in the data set on BDNF production is reported as “significantly increases BDNF production”. Also, the “seizure / convulsant activity” value in data set [1] (16 uM) is given as “demonstrated seizure potential activity; also recorded: unacceptable convulsant activity”.

Consider picrotoxin [reference compound], for which the “seizure activity (population spikes)” value in data set [1] (50 μM perfusion) is listed as “induced a seizure like activity at the level of second PS but not third PS”.

As for `O=C(c1ccc2c(c1)OCCO2)N1CCCCC1` [CX546], the “binding to the cyclothiazide binding site” value in data set [2] is listed as “binds to the cyclothiazide binding site”. Further, the “generalized discharges in hippocampal slices” value in the data set on hippocampal slices is listed as “produce generalized discharges”.

In the case of `O=C(c1ccc2nccnc2c1)N1CCCCC1` [CX516], in data set [2], the “binding to the cyclothiazide binding site” value was “does not bind to the cyclothiazide binding site”. The “generalized discharges in hippocampal slices” value in the data set on hippocampal slices is listed as “do not”. For the same compound, the “memory, language use, attention, executive and overall functioning” value in data set [3] is on record as “did not exhibit improved memory”. Also, in the data set with schizophrenia patients (add-on to clozapine, olanzapine or risperidone, weeks 4 or 8), the “cognition tests versus placebo groups” value was “did not significantly differ”. The adverse side effects result with schizophrenia patients (four weeks treatment) was “fatigue, epigastric discomfort and insomnia”.
